Values after ≈ are worked out from the molar mass of the structure shown. Read-outs that look alike come from different tables or passages of the source.
Experiments:
[1] = system: E. coli ATCC 25922 (parent / WT); assay: microbe, parasite or virus in culture; conditions: Escherichia coli
Outline: (§1)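 Following CLSI procedures, minimum inhibitory concentrations are measured; serial passage experiments select resistant mutants, whose MICs are determined before whole-genome sequencing and bioinformatic analysis.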

[2] = system: E. coli ATCC 25922 LptA Q62L mutant; assay: microbe, parasite or virus in culture; conditions: Escherichia coli
Outline: as §1

[3] = system: Escherichia coli ATCC 25922 KdsD mutant; assay: microbe, parasite or virus in culture; conditions: Escherichia coli, ATCC25922, read-out: MIC Escherichia coli ATCC 25922 KdsD (2x)
Outline: as §1

[4] = system: Escherichia coli ATCC 25922 LptA E84D mutant; assay: microbe, parasite or virus in culture; conditions: Escherichia coli, ATCC25922, read-out: MIC Escherichia coli ATCC 25922 LptA E84D (1x)
Outline: as §1

[5] = system: K. pneumoniae ATCC 43816 (parent / WT); assay: microbe, parasite or virus in culture; conditions: Klebsiella pneumoniae, ATCC43816, read-out: MIC Klebsiella pneumoniae ATCC 43816 WT
Outline: as §1

[6] = system: K. pneumoniae ATCC 43816 LptA Q62L mutant; assay: microbe, parasite or virus in culture; conditions: Klebsiella pneumoniae
Outline: as §1

[7] = system: K. pneumoniae NCTC 13443 (NDM-1) (parent / WT); assay: microbe, parasite or virus in culture; conditions: Klebsiella pneumoniae
Outline: as §1

[8] = system: K. pneumoniae NCTC 13443 (NDM-1) LptA Q62L mutant; assay: microbe, parasite or virus in culture; conditions: Klebsiella pneumoniae
Outline: as §1

[9] = system: Klebsiella pneumoniae ATCC 43816 LapB mutant; assay: microbe, parasite or virus in culture; conditions: Klebsiella pneumoniae, ATCC43816, read-out: MIC Klebsiella pneumoniae ATCC 43816 LapB (1x)
Outline: as §1

[10] = system: Klebsiella pneumoniae ATCC 43816 LptA I36N mutant; assay: microbe, parasite or virus in culture; conditions: Klebsiella pneumoniae, ATCC43816, read-out: MIC Klebsiella pneumoniae ATCC 43816 LptA I36N (1x)
Outline: as §1

[11] = system: Klebsiella pneumoniae ATCC 43816 LptA I36S mutant; assay: microbe, parasite or virus in culture; conditions: Klebsiella pneumoniae, ATCC43816, read-out: MIC Klebsiella pneumoniae ATCC 43816 LptA I36S (1x)
Outline: as §1

[12] = system: Klebsiella pneumoniae ATCC 43816 LptA L116Q mutant; assay: microbe, parasite or virus in culture; conditions: Klebsiella pneumoniae, ATCC43816, read-out: MIC Klebsiella pneumoniae ATCC 43816 LptA L116Q (1x)
Outline: as §1

[13] = system: Klebsiella pneumoniae ATCC 43816 PglJ, PhnJ, ThiH mutant; assay: microbe, parasite or virus in culture; conditions: Klebsiella pneumoniae, ATCC43816, read-out: MIC Klebsiella pneumoniae ATCC 43816 PglJ, PhnJ, ThiH (1x)
Outline: as §1

[14] = system: Klebsiella pneumoniae NCTC 13443 LptA I36S mutant; assay: microbe, parasite or virus in culture; conditions: Klebsiella pneumoniae, NCTC13443, read-out: MIC Klebsiella pneumoniae NCTC 13443 LptA I36S (2x)
Outline: as §1

[15] = system: Klebsiella pneumoniae NCTC 13443 LpxC, LpxD mutant; assay: microbe, parasite or virus in culture; conditions: Klebsiella pneumoniae, NCTC13443, read-out: MIC Klebsiella pneumoniae NCTC 13443 LpxC, LpxD (1x)
Outline: as §1

[16] = system: Klebsiella pneumoniae NCTC 13443 YejM mutant; assay: microbe, parasite or virus in culture; conditions: Klebsiella pneumoniae, NCTC13443, read-out: MIC Klebsiella pneumoniae NCTC 13443 YejM (1x)
Outline: as §1

[17] = system: K. pneumoniae 968733 (CST-R); assay: MIC assay (CLSI); type: cell-based, Klebsiella pneumoniae; conditions: Klebsiella pneumoniae, read-out: MIC K. pneumoniae 968733 (CST-R) Parent
Protocol: (§2) MIC assays [Clinical and Laboratory Standards Institute (CLSI) methodology] and serial passage studies were performed as described by Luther et al. ([6]). […] Resistant mutants were isolated, and their MIC values were determined and sent to Microbes NG (Birmingham, United Kingdom) for whole-genome sequencing and bioinformatic analysis.

[18] = system: panel of 121 Enterobacteriaceae including CRE, MDR, and XDR isolates; assay: organism not typed
Protocol: as §2

[19] = system: Enterobacteriaceae (CS, Col-S) (n=22); type: cell-based; conditions: CLSI microdilution; minimum and maximum MIC of the panel; carbapenem sensitive, colistin sensitive
Protocol: as §2

E. coli ST131 (n=8) = assay: MIC against isolate panel; type: cell-based, Escherichia coli; conditions: CLSI microdilution; minimum and maximum MIC of the panel
Protocol: as §2

With `C[C@@H](O)[C@H]1C(=O)N2C(C(=O)O)=C(S[C@@H]3CN[C@H](C(=O)N(C)C)C3)[C@H](C)[C@H]12` [Meropenem] the MIC ([1]; ATCC25922, read-out: MIC E. coli ATCC 25922 Parent) was 0.063 µg/mL (≈ 0.164 µM), the MIC ([1]; ATCC25922, read-out: MIC Escherichia coli ATCC 25922 WT) was ≤ 0.06 µg/mL and the MIC ([2]; ATCC25922, read-out: MIC E. coli ATCC 25922 Q62L mutant) was 0.063 µg/mL (≈ 0.164 µM). The MIC ([2]; ATCC25922, read-out: MIC Escherichia coli ATCC 25922 LptA Q62L (7x)) was ≤ 0.06 µg/mL, the MIC [3] was 0.13 µg/mL (≈ 0.339 µM) and the MIC [4] was ≤ 0.06 µg/mL. For the same molecule, the MIC [5] was 0.13 µg/mL (≈ 0.339 µM), the MIC ([6]; ATCC43816, read-out: MIC K. pneumoniae ATCC 43816 Q62L mutant) was 0.063 µg/mL (≈ 0.164 µM) and the MIC ([6]; ATCC43816, read-out: MIC Klebsiella pneumoniae ATCC 43816 LptA Q62L (4x)) was ≤ 0.06 µg/mL. For the same molecule, the MIC ([7]; NCTC13443, read-out: MIC K. pneumoniae NCTC 13443 (NDM-1) Parent) was > 8 µg/mL, the MIC ([7]; NCTC13443, read-out: MIC Klebsiella pneumoniae NCTC 13443 WT) was > 64 µg/mL and the MIC ([8]; NCTC13443, read-out: MIC K. pneumoniae NCTC 13443 (NDM-1) Q62L mutant) was > 8 µg/mL. For the same molecule, the MIC ([8]; NCTC13443, read-out: MIC Klebsiella pneumoniae NCTC 13443 LptA Q62L (5x)) was > 64 µg/mL, the MIC [9] was 0.13 µg/mL (≈ 0.339 µM) and the MIC [10] was ≤ 0.06 µg/mL. The MIC [11] was ≤ 0.06 µg/mL, the MIC [12] was ≤ 0.06 µg/mL and the MIC [13] was 0.13 µg/mL (≈ 0.339 µM). The MIC [14] was > 64 µg/mL, the MIC [15] was > 64 µg/mL and the MIC [16] was > 64 µg/mL. For the same molecule, the MIC [17] was 0.031 µg/mL (≈ 0.0808 µM), the MIC50 ([18]; read-out: MIC50 (n=121)) was > 8 µg/mL and the MIC90 ([18]; read-out: MIC90 (n=121)) was > 64 µg/mL. For the same molecule, the “MIC range Enterobacteriaceae (CS, Col-S) (n=22)” value [19] was ≤0.06 to 0.5 µg/mL and the “MIC range E. coli ST131 (n=8)” value (E. coli ST131 (n=8)) was “<=0.06-8 µg/mL”.

From article PMC10208570, “Peptidomimetic antibiotics disrupt the lipopolysaccharide transport bridge of drug-resistant Enterobacteriaceae” (Science Advances, 2023)
